Measurements from the CheMixHub viscosity set.
± gives the uncertainty stated by the source.

Test: xn = mol fraction of the nth substance listed

CC(O)CO (stereo not given) + CC(C)=O
viscosity [mPa·s], 100 kPa
Conditions	x2 = 0.1	x2 = 0.2	x2 = 0.2998	x2 = 0.3999	x2 = 0.5004	x2 = 0.5999	x2 = 0.6999	x2 = 0.8	x2 = 0.9001
293.15 K	29.94 ± 3	14.46 ± 1.4	7.145 ± 0.72	3.875 ± 0.39	2.363 ± 0.24	1.532 ± 0.15	0.934 ± 0.094	0.601 ± 0.06	0.4671 ± 0.047
298.15 K	22.95 ± 2.3	11.54 ± 1.2	5.918 ± 0.59	3.303 ± 0.33	2.066 ± 0.21	1.356 ± 0.14	0.8597 ± 0.086	0.5688 ± 0.057	0.4463 ± 0.045
303.15 K	17.9 ± 1.8	9.34 ± 0.93	4.965 ± 0.5	2.882 ± 0.29	1.821 ± 0.18	1.201 ± 0.12	0.7943 ± 0.08	0.5379 ± 0.054	0.4209 ± 0.042
308.15 K	14.19 ± 1.4	7.662 ± 0.77	4.208 ± 0.42	2.55 ± 0.26	1.614 ± 0.16	1.103 ± 0.11	0.7356 ± 0.074	0.5208 ± 0.052	0.3953 ± 0.04
313.15 K	11.41 ± 1.1	6.362 ± 0.64	3.602 ± 0.36	2.189 ± 0.22	1.44 ± 0.14	0.9924 ± 0.099	0.6822 ± 0.068	0.4945 ± 0.05	0.377 ± 0.038
318.15 K	9.297 ± 0.93	5.341 ± 0.53	3.109 ± 0.31	1.971 ± 0.2	1.298 ± 0.13	0.8944 ± 0.09	0.6317 ± 0.063	0.4731 ± 0.048	0.3691 ± 0.037
323.15 K	7.672 ± 0.77	4.529 ± 0.45	2.71 ± 0.27	1.717 ± 0.17	1.175 ± 0.12	0.815 ± 0.082	0.5813 ± 0.058	0.4533 ± 0.046	0.3477 ± 0.035

ClC=C(Cl)Cl + CC(C)CCO
303.15 K, 101.3 kPa
Conditions	viscosity [mPa·s]
x1 = 0.0921	2.553 ± 0.032
x1 = 0.2031	2.01 ± 0.025
x1 = 0.2728	1.705 ± 0.022
x1 = 0.4124	1.237 ± 0.016
x1 = 0.5054	1.027 ± 0.014
x1 = 0.6208	0.85 ± 0.012
x1 = 0.7016	0.758 ± 0.01
x1 = 0.814	0.666 ± 0.009
x1 = 0.9047	0.597 ± 0.009

CC(O)CO (stereo not given) + CC(C)CO
viscosity [mPa·s], 100 kPa
Conditions	x2 = 0.101	x2 = 0.2	x2 = 0.3	x2 = 0.4	x2 = 0.5	x2 = 0.6	x2 = 0.7	x2 = 0.8	x2 = 0.9
298.15 K	29.95 ± 0.76	22.5 ± 0.54	16.76 ± 0.4	12.73 ± 0.3	9.74 ± 0.23	7.778 ± 0.18	6.056 ± 0.14	4.843 ± 0.11	3.968 ± 0.089
303.15 K	22.85 ± 0.57	17.38 ± 0.41	13.28 ± 0.31	10.21 ± 0.24	7.878 ± 0.18	6.366 ± 0.15	5.037 ± 0.12	4.08 ± 0.093	3.366 ± 0.075
308.15 K	17.8 ± 0.44	13.79 ± 0.32	10.5 ± 0.24	8.284 ± 0.19	6.476 ± 0.15	5.284 ± 0.12	4.197 ± 0.096	3.45 ± 0.078	2.869 ± 0.064
313.15 K	14.12 ± 0.34	11.03 ± 0.26	8.532 ± 0.2	6.802 ± 0.16	5.362 ± 0.12	4.42 ± 0.1	3.54 ± 0.081	2.939 ± 0.066	2.471 ± 0.055
318.15 K	11.32 ± 0.27	8.884 ± 0.2	6.942 ± 0.16	5.599 ± 0.13	4.486 ± 0.1	3.744 ± 0.084	3.013 ± 0.068	2.533 ± 0.057	2.129 ± 0.047
323.15 K	9.291 ± 0.22	7.286 ± 0.17	5.767 ± 0.13	4.693 ± 0.11	3.766 ± 0.085	3.185 ± 0.071	2.59 ± 0.058	2.192 ± 0.049	1.846 ± 0.041

ClC=C(Cl)Cl + CC(C)CO
viscosity [mPa·s]
Conditions	293.15 K	303.15 K	313.15 K
101.3 kPa, x1 = 0.1086	–	2.134 ± 0.027	–
101.3 kPa, x1 = 0.2127	–	1.627 ± 0.021	–
101.3 kPa, x1 = 0.3178	–	1.273 ± 0.017	–
101.3 kPa, x1 = 0.4018	–	1.075 ± 0.014	–
101.3 kPa, x1 = 0.5178	–	0.889 ± 0.012	–
101.3 kPa, x1 = 0.6042	–	0.795 ± 0.011	–
101.3 kPa, x1 = 0.7191	–	0.703 ± 0.01	–
101.3 kPa, x1 = 0.8127	–	0.644 ± 0.009	–
101.3 kPa, x1 = 0.9144	–	0.581 ± 0.008	–
101.33 kPa, x2 = 0.15	0.8993 ± 0.016	0.7678 ± 0.014	0.6502 ± 0.012
101.33 kPa, x2 = 0.3	1.228 ± 0.022	1.005 ± 0.018	0.8284 ± 0.015
101.33 kPa, x2 = 0.45	1.556 ± 0.027	1.242 ± 0.022	1.007 ± 0.018
101.33 kPa, x2 = 0.6	1.884 ± 0.032	1.478 ± 0.026	1.185 ± 0.021
101.33 kPa, x2 = 0.75	2.213 ± 0.038	1.715 ± 0.029	1.365 ± 0.024
101.33 kPa, x2 = 0.9	2.541 ± 0.043	1.952 ± 0.033	1.542 ± 0.027

NC1CCCCC1 + CC(C)CO
Conditions	viscosity [mPa·s]
293.15 K, 100 kPa, x2 = 0.1205	2.575 ± 0.064
298.15 K, 101 kPa, x1 = 0.0767	3.274 ± 0.037
298.15 K, 101 kPa, x1 = 0.1574	3.183 ± 0.036
298.15 K, 101 kPa, x1 = 0.3325	3.067 ± 0.035
298.15 K, 101 kPa, x1 = 0.4277	2.976 ± 0.034
298.15 K, 101 kPa, x1 = 0.5285	2.859 ± 0.033
298.15 K, 101 kPa, x1 = 0.6355	2.681 ± 0.031
298.15 K, 101 kPa, x1 = 0.7493	2.447 ± 0.028
298.15 K, 101 kPa, x1 = 0.8706	2.165 ± 0.025
308.15 K, 100 kPa, x2 = 0.6492	2.275 ± 0.063

ClC=C(Cl)Cl + CC(C)O
viscosity [mPa·s]
Conditions	293.15 K	303.15 K	313.15 K
101.3 kPa, x1 = 0.1036	–	1.363 ± 0.018	–
101.3 kPa, x1 = 0.2204	–	1.053 ± 0.014	–
101.3 kPa, x1 = 0.3432	–	0.849 ± 0.012	–
101.3 kPa, x1 = 0.4172	–	0.765 ± 0.011	–
101.3 kPa, x1 = 0.5133	–	0.686 ± 0.01	–
101.3 kPa, x1 = 0.6024	–	0.641 ± 0.009	–
101.3 kPa, x1 = 0.7196	–	0.603 ± 0.009	–
101.3 kPa, x1 = 0.8017	–	0.583 ± 0.008	–
101.3 kPa, x1 = 0.9028	–	0.556 ± 0.008	–
101.33 kPa, x2 = 0.15	0.7418 ± 0.014	0.6628 ± 0.012	0.5527 ± 0.01
101.33 kPa, x2 = 0.3	0.9127 ± 0.016	0.7947 ± 0.015	0.6334 ± 0.012
101.33 kPa, x2 = 0.45	1.083 ± 0.019	0.9265 ± 0.017	0.7141 ± 0.013
101.33 kPa, x2 = 0.6	1.257 ± 0.022	1.058 ± 0.019	0.7948 ± 0.015
101.33 kPa, x2 = 0.75	1.428 ± 0.025	1.19 ± 0.021	0.8775 ± 0.016
101.33 kPa, x2 = 0.9	1.596 ± 0.028	1.322 ± 0.023	0.9562 ± 0.017

CCCCCCCCCCCCCCO + CC(C)[C@@H]1CC[C@@H](C)C[C@H]1O
100 kPa, x1 = 0.333
Conditions	viscosity [mPa·s]
293.15 K	44.69 ± 1.1
298.15 K	31.86 ± 0.84
303.15 K	23.35 ± 0.6
308.15 K	17.54 ± 0.45
313.15 K	13.47 ± 0.34
318.15 K	10.53 ± 0.26
323.15 K	8.38 ± 0.21

ClC=C(Cl)Cl + CCC(C)(C)O
298.15 K, 101 kPa
Conditions	viscosity [mPa·s]
x2 = 0.0494	0.556 ± 0.078
x2 = 0.101	0.576 ± 0.08
x2 = 0.1994	0.626 ± 0.086
x2 = 0.2988	0.69 ± 0.093
x2 = 0.3984	0.779 ± 0.1
x2 = 0.4991	0.909 ± 0.12
x2 = 0.5974	1.08 ± 0.14
x2 = 0.7	1.353 ± 0.17
x2 = 0.7976	1.723 ± 0.21
x2 = 0.9001	2.365 ± 0.28

NC1CCCCC1 + CCC(C)=O
298.15 K, 101 kPa
Conditions	viscosity [mPa·s]
x1 = 0.0747	0.5316 ± 0.0048
x1 = 0.1538	0.6621 ± 0.0057
x1 = 0.2376	0.8418 ± 0.007
x1 = 0.3265	1.042 ± 0.0084
x1 = 0.421	1.235 ± 0.0097
x1 = 0.5217	1.449 ± 0.011
x1 = 0.6291	1.625 ± 0.012
x1 = 0.7441	1.781 ± 0.013
x1 = 0.8674	1.823 ± 0.014
x2 = 0.1326	1.574 ± 0.011
x2 = 0.2559	1.409 ± 0.01
x2 = 0.3708	1.257 ± 0.009
x2 = 0.4783	1.115 ± 0.008
x2 = 0.579	0.978 ± 0.007
x2 = 0.6735	0.846 ± 0.006
x2 = 0.7624	0.719 ± 0.005
x2 = 0.8462	0.599 ± 0.004
x2 = 0.9252	0.481 ± 0.004
